Test results as given in patent US4803074A, “FR-900848 substance and preparation thereof” (priority 1987, dated 1989).
Values after ≈ are worked out from the molar mass of the structure shown.

Legend:
[1] = test system: Aspergillus niger IFO 4417; assay: MIC (minimal inhibitory concentration), two-fold agar-plate dilution method; assay type: cell-based; conditions: IFO4417, malt extract agar, 37° C., 20 hours
Description: (§1) In vitro antimicrobial activity was determined by the two-fold agar-plate dilution method as described below.
(§2) One loopful of an overnight culture of each test strain in malt extract broth was streaked on malt extract agar containing graded concentrations of FR-900848 substance and MIC was determined after incubation at 37° C. for 20 hours.

Aureobasidium pullulans = assay: as above; assay type: cell-based; conditions: malt extract agar, 37° C., 20 hours
Description: as §1, §2

Fusarium oxysporum = assay: as above; assay type: cell-based; conditions: malt extract agar, 37° C., 20 hours
Description: as §1, §2

Geotrichum candidum = assay: as above; assay type: cell-based; conditions: malt extract agar, 37° C., 20 hours
Description: as §1, §2

[2] = test system: Mucor rouxianus (Calmette) Wehmer; assay: as above; assay type: cell-based; conditions: 20 h, read-out: MIC (minimal inhibitory concentration)
Description: as §1, §2

Sclerotinia arachidis = assay: as above; assay type: cell-based; conditions: malt extract agar, 37° C., 20 hours
Description: as §1, §2

Trichophyton asteroides = assay: as above; assay type: cell-based; conditions: malt extract agar, 37° C., 20 hours
Description: as §1, §2

fungi = assay: In vitro antimicrobial activity (summary statement); assay type: cell-based; conditions: for example Aspergillus niger, Geotrichum candidum, Trichophyton asteroides
Description: as §1, §2

[3] = Acute toxicity by intraperitoneal injection; conditions: mouse, in vivo, ip, mice (ICR, male, 4 weeks old)
Excerpt: Acute toxicity of FR-900848 substance in mice (ICR, male, 4 weeks old) by intraperitoneal injection is more than 1.0 g/kg.

Solubility = assay type: physicochemical

SMILES: CC1CC1C=CC1CC1C1CC1C1CC1C1CC1C=CC=CC(=O)NCC1OC(N2CCC(=O)NC2=O)C(O)C1O (centres unmarked) [FR-900848 substance]
- MIC [1]: 0.015 µg/mL (≈ 0.0265 µM)
- MIC (Aureobasidium pullulans): 0.03 µg/mL (≈ 0.053 µM)
- MIC (Fusarium oxysporum): 0.05 µg/mL (≈ 0.0884 µM)
- MIC (Geotrichum candidum): 0.12 µg/mL (≈ 0.212 µM)
- MIC [2]: 0.03 µg/mL (≈ 0.053 µM)
- MIC (Sclerotinia arachidis): 0.05 µg/mL (≈ 0.0884 µM)
- MIC (Trichophyton asteroides): 0.5 µg/mL (≈ 0.884 µM)
- antimicrobial activity against fungi (fungi): showed antimicrobial activity
- LD50 [3]: > 1000 mg/kg
- Solubility (Solubility; chloroform): slightly soluble
- Solubility (Solubility; dimethylsulfoxide): soluble
- Solubility (Solubility; ethyl acetate): slightly soluble
- Solubility (Solubility; methanol): slightly soluble
- Solubility (Solubility; water): insoluble
